Patent publication EP4574151A1, “INHIBITORS OF G12V-MUTATED RAS PROTEIN TO TREAT CANCER” (Personather Spolka Z Ograniczona Odpowiedzialnoscia, priority 2023, dated 2025)

Tested on: NIH/3T3 cell line - immortalized mouse fibroblasts
Assay: Crystal violet cytotoxicity test in normal cells
Assay type: cell-based
Conditions: summary statement; normal cells NIH/3T3 and PER49
Excerpt: To evaluate the toxicity of the tested compound on normal cells, the NIH/3T3 cell line - immortalized mouse fibroblasts and normal pericytes (PER49) were used.
As a research model, colon cancer and lung cancer cell lines (sensitive lines) were used, including SW620, SW480, and COR-L23, respectively, which are characterized by the KRASG12V gene mutation and lack of other alterations in genes belonging to the RAS protein signaling pathway, as well as a stable line of normal cells (mouse fibroblasts), which serve as a platform for evaluating the impact of tested compounds on non-cancer cells. Below is the result for one of the analyzed cell lines with the mutation. Similar differences in IC50 values compared to normal cells were obtained for the other cell lines mentioned above with the RASG12V mutation.
The effect of molecules on the biology of selected cell lines to assess their cytotoxicity using the IC50 indicator was carried out according to the protocol below: • 1. The cells of the tested lines were seeded in wells of a 96-well plate at specified densities. • 2. After seeding, the cells were subjected to a 24-hour incubation in medium with a 1% and 2.5% addition of serum (sensitive lines) or in medium with a 0.5% addition of serum (normal line). • 3. The cells were exposed to selected molecules at selected concentrations. The control was provided by the culture medium without any added compounds. Concentrations of the tested molecules [uM]: • □ NIH3T3: 500; 250; 125; 62,5; 31,25 • □ SW620: 60; 30; 15; 7,5; 3,75 • 4. After 72 hours of incubation, the culture medium was removed and the cells were washed twice with buffer saline solution (PBS). Then, the cells were incubated for 10 minutes with a 0.1% solution of crystal violet at room temperature (Merck Millipore). • 5. After 10 minutes, the crystal violet solution was removed and the wells of the 96-well plate were washed twice with PBS solution. • 4. 50% ice-cold acetic acid solution was added to each well and incubated again for 10 minutes at room temperature on a shaker at 650 rpm. • 5. Absorbance measurement was performed using a plate reader, at a wavelength of λ = 540 nm

Q: For O=C(Nc1ccc2c(c1)OCCO2)c1ccc2c(c1)C1C3CCC(C3)C1C(c1ccccc1)N2 (centres unmarked) [PER154A], which “toxicity against normal cells” value is on record?
A: The value was “no toxicity”.

Q: With O=C(Nc1ccc(F)cc1)c1ccc2c(c1)C1C3CCC(C3)C1C(c1ccccc1)N2 (centres unmarked) [PER160A] as the compound, how does the “toxicity against normal cells” value read?
A: The value was “no toxicity”.
